Results: patent US12077503B2, “Substituted cyclic amides and their use as herbicides” (FMC CORPORATION, priority 2015, dated 2024)

Legend:
Assay in all cases: Test C preemergence
Assay type in all cases: in vivo
[1] = tested on: velvetleaf (Abutilon theophrasti); details: for Plant response rating, Velvetleaf: scale 0 to 100, 0 no effect, 100 complete control
Summary of the method: (§1)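 Herbicidal effect, applied preemergence to sown seeds or postemergence to 1- to 4-leaf plants, was scored visually 13 to 15 d after application, 0 to 100 versus controls.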

[2] = tested on: johnsongrass (Sorghum halepense); details: for Plant response rating, Johnsongrass: scale 0 to 100, 0 no effect, 100 complete control
Summary of the method: as §1

[3] = tested on: foxtail, giant (giant foxtail, Setaria faberii); details: for Plant response rating, Foxtail, Giant: scale 0 to 100, 0 no effect, 100 complete control
Summary of the method: as §1

[4] = tested on: crabgrass, large (large crabgrass, Digitaria sanguinalis); details: for Plant response rating, Crabgrass, Large: scale 0 to 100, 0 no effect, 100 complete control
Summary of the method: as §1

[5] = tested on: barnyardgrass (Echinochloa crus-galli); details: for Plant response rating, Barnyardgrass: scale 0 to 100, 0 no effect, 100 complete control
Summary of the method: as §1

[6] = tested on: blackgrass (Alopecurus myosuroides); details: for Plant response rating, Blackgrass: scale 0 to 100, 0 no effect, 100 complete control
Summary of the method: as §1

[7] = tested on: wheat (winter wheat, Triticum aestivum); details: for Plant response rating, Wheat: scale 0 to 100, 0 no effect, 100 complete control
Summary of the method: as §1

[8] = tested on: nutsedge, yellow (yellow nutsedge, Cyperus esculentus); details: for Plant response rating, Nutsedge, Yellow: scale 0 to 100, 0 no effect, 100 complete control
Summary of the method: as §1

soybean (Glycine max) = details: for Plant response rating, Soybean: scale 0 to 100, 0 no effect, 100 complete control
Summary of the method: as §1

corn (Zea mays) = details: for Plant response rating, Corn: scale 0 to 100, 0 no effect, 100 complete control
Summary of the method: as §1

[9] = tested on: Galium (catchweed bedstraw, Galium aparine); details: for Plant response rating, Galium: scale 0 to 100, 0 no effect, 100 complete control
Summary of the method: as §1

[10] = tested on: waterhemp (common waterhemp, Amaranthus rudis); details: for Plant response rating, Waterhemp: scale 0 to 100, 0 no effect, 100 complete control
Summary of the method: as §1

[11] = tested on: lambsquarters (Chenopodium album); details: for Plant response rating, Lambsquarters: scale 0 to 100, 0 no effect, 100 complete control
Summary of the method: as §1

[12] = tested on: ryegrass, Italian (Italian ryegrass, Lolium multiflorum); details: for Plant response rating, Ryegrass, Italian: scale 0 to 100, 0 no effect, 100 complete control
Summary of the method: as §1

[13] = tested on: oilseed rape (Brassica napus); details: for Plant response rating, Oilseed Rape: scale 0 to 100, 0 no effect, 100 complete control
Summary of the method: as §1

[14] = tested on: pigweed (Amaranthus retroflexus); details: for Plant response rating, Pigweed: scale 0 to 100, 0 no effect, 100 complete control
Summary of the method: as §1

[15] = tested on: morningglory (Ipomoea coccinea); details: for Plant response rating, Morningglory: scale 0 to 100, 0 no effect, 100 complete control
Summary of the method: as §1

[16] = 31 g ai/ha, 0 is no effect, 100 is complete control

`CN1CC(c2cccc(OC(F)F)c2)C(C(=O)Nc2cccc(F)c2F)C1=O` (centres unmarked) [Compound 616] was tested, and the “Plant response rating (scale of 0 to 100), Velvetleaf” value [1, 16] was 0, the “Plant response rating, Velvetleaf” value ([1]; 62 g ai/ha) was 10 and the “Plant response rating, Velvetleaf” value ([1]; 125 g ai/ha) was 40. For the same molecule, the “Plant response rating, Velvetleaf” value ([1]; 250 g ai/ha) was 35, the “Plant response rating (scale of 0 to 100), Johnsongrass” value [2, 16] was 60 and the “Plant response rating, Johnsongrass” value ([2]; 62 g ai/ha) was 85. The “Plant response rating, Johnsongrass” value ([2]; 125 g ai/ha) was 75, the “Plant response rating, Johnsongrass” value ([2]; 250 g ai/ha) was 90 and the “Plant response rating (scale of 0 to 100), Foxtail, Giant” value [3, 16] was 90. For the same molecule, the “Plant response rating, Foxtail, Giant” value ([3]; 62 g ai/ha) was 90, the “Plant response rating, Foxtail, Giant” value ([3]; 125 g ai/ha) was 90 and the “Plant response rating, Foxtail, Giant” value ([3]; 250 g ai/ha) was 95. The “Plant response rating (scale of 0 to 100), Crabgrass, Large” value [4, 16] was 90, the “Plant response rating, Crabgrass, Large” value ([4]; 62 g ai/ha) was 90 and the “Plant response rating, Crabgrass, Large” value ([4]; 125 g ai/ha) was 95. For the same molecule, the “Plant response rating, Crabgrass, Large” value ([4]; 250 g ai/ha) was 95, the “Plant response rating (scale of 0 to 100), Barnyardgrass” value [5, 16] was 90 and the “Plant response rating, Barnyardgrass” value ([5]; 62 g ai/ha) was 90. The “Plant response rating, Barnyardgrass” value ([5]; 125 g ai/ha) was 95, the “Plant response rating, Barnyardgrass” value ([5]; 250 g ai/ha) was 95 and the “Plant response rating (scale of 0 to 100), Blackgrass” value [6, 16] was 30. For the same molecule, the “Plant response rating, Blackgrass” value ([6]; 62 g ai/ha) was 45, the “Plant response rating, Blackgrass” value ([6]; 125 g ai/ha) was 80 and the “Plant response rating, Blackgrass” value ([6]; 250 g ai/ha) was 80. For the same molecule, the “Plant response rating (scale of 0 to 100), Wheat” value [7, 16] was 0, the “Plant response rating, Wheat” value ([7]; 62 g ai/ha) was 10 and the “Plant response rating, Wheat” value ([7]; 125 g ai/ha) was 50. For the same molecule, the “Plant response rating, Wheat” value ([7]; 250 g ai/ha) was 85, the “Plant response rating (scale of 0 to 100), Nutsedge, Yellow” value [8, 16] was 0 and the “Plant response rating, Nutsedge, Yellow” value ([8]; 62 g ai/ha) was 0. For the same molecule, the “Plant response rating, Nutsedge, Yellow” value ([8]; 125 g ai/ha) was 0, the “Plant response rating, Nutsedge, Yellow” value ([8]; 250 g ai/ha) was 0 and the “Plant response rating (scale of 0 to 100), Soybean” value (soybean (Glycine max); [16]) was 0. For the same molecule, the “Plant response rating, Soybean” value (soybean (Glycine max); 62 g ai/ha) was 0, the “Plant response rating, Soybean” value (soybean (Glycine max); 125 g ai/ha) was 0 and the “Plant response rating, Soybean” value (soybean (Glycine max); 250 g ai/ha) was 15. For the same molecule, the “Plant response rating (scale of 0 to 100), Corn” value (corn (Zea mays); [16]) was 55, the “Plant response rating, Corn” value (corn (Zea mays); 62 g ai/ha) was 65 and the “Plant response rating, Corn” value (corn (Zea mays); 125 g ai/ha) was 80. The “Plant response rating, Corn” value (corn (Zea mays); 250 g ai/ha) was 85, the “Plant response rating (scale of 0 to 100), Galium” value [9, 16] was 90 and the “Plant response rating, Galium” value ([9]; 62 g ai/ha) was 85. For the same molecule, the “Plant response rating, Galium” value ([9]; 125 g ai/ha) was 85, the “Plant response rating, Galium” value ([9]; 250 g ai/ha) was 90 and the “Plant response rating (scale of 0 to 100), Waterhemp” value [10, 16] was 50. For the same molecule, the “Plant response rating, Waterhemp” value ([10]; 62 g ai/ha) was 80, the “Plant response rating, Waterhemp” value ([10]; 125 g ai/ha) was 85 and the “Plant response rating, Waterhemp” value ([10]; 250 g ai/ha) was 85. For the same molecule, the “Plant response rating (scale of 0 to 100), Lambsquarters” value [11, 16] was 25, the “Plant response rating, Lambsquarters” value ([11]; 62 g ai/ha) was 35 and the “Plant response rating, Lambsquarters” value ([11]; 125 g ai/ha) was 70. For the same molecule, the “Plant response rating, Lambsquarters” value ([11]; 250 g ai/ha) was 60, the “Plant response rating (scale of 0 to 100), Ryegrass, Italian” value [12, 16] was 30 and the “Plant response rating, Ryegrass, Italian” value ([12]; 62 g ai/ha) was 35. The “Plant response rating, Ryegrass, Italian” value ([12]; 125 g ai/ha) was 90, the “Plant response rating, Ryegrass, Italian” value ([12]; 250 g ai/ha) was 85 and the “Plant response rating (scale of 0 to 100), Oilseed Rape” value [13, 16] was 60. The “Plant response rating, Oilseed Rape” value ([13]; 62 g ai/ha) was 60, the “Plant response rating, Oilseed Rape” value ([13]; 125 g ai/ha) was 70 and the “Plant response rating, Oilseed Rape” value ([13]; 250 g ai/ha) was 85. For the same molecule, the “Plant response rating (scale of 0 to 100), Pigweed” value [14, 16] was 75, the “Plant response rating, Pigweed” value ([14]; 62 g ai/ha) was 80 and the “Plant response rating, Pigweed” value ([14]; 125 g ai/ha) was 80. For the same molecule, the “Plant response rating, Pigweed” value ([14]; 250 g ai/ha) was 80, the “Plant response rating (scale of 0 to 100), Morningglory” value [15, 16] was 0 and the “Plant response rating, Morningglory” value ([15]; 62 g ai/ha) was 0. The “Plant response rating, Morningglory” value ([15]; 125 g ai/ha) was 10 and the “Plant response rating, Morningglory” value ([15]; 250 g ai/ha) was 10.
